# From patent publication US20260124244A1, “MEGAKARYOCYTE DERIVATIVES FOR TREATMENT OF DRY EYE DISEASES” (Stellular Bio, Inc., priority 2023, published 2026)
# Key:
# [1] = test system: rat medial meniscal tear (MMT) model of osteoarthritis (OA); test: Dynamic weight bearing test in rat MMT osteoarthritis model; assay type: in vivo; conditions: intraarticular injection on days 7, 14 and 21 after surgery; tested days 7-28
# Protocol: (§1) In vivo effect of MLC lysate and PLC in a subject having osteoarthritis was measured. A rat medial meniscal tear (MMT) model of osteoarthritis (OA) was used in an in vivo study for testing efficacy of megakaryocyte derivatives. […] As described in FIG. 13A, Lewis rats were subjected to meniscal tear surgery on day 0. Dynamic weight bearing and electronic Von Frey Filament analyses were conducted at 7, 14, 21 and 28 days following surgery. Subjects were administered with MLC lysates or PLCs by intraarticular injection after DWB and EVFF analysis on days 7, 14 and 21 following surgery. On day 28 following surgery, serum was collected, and animals were sacrificed to allow for joint histology. PRP and recombinant human FGF-18 were used as positive controls. For negative control vehicle only was used. In sum, the study comprised the following groups: No surgery (n=5), MMT Surgery+Vehicle (n=15), MMT Surgery+Platelet-like cells (n=15), MMT Surgery+Platelet-rich plasma (n=15), MMT Surgery+rFGF-18 (n=15), and MMT Surgery+MLC Lysate (n=15).
# (§2) FIGS. 13B and 13C illustrate efficacy results of MLC lysate and PLC in the rat medial meniscal tear model of osteoarthritis using dynamic weight bearing test and electronic Von Frey Filament test, respectively.
# [2] = test system: rat medial meniscal tear (MMT) model of osteoarthritis (OA); test: Electronic Von Frey Filament test in rat MMT osteoarthritis model; assay type: in vivo; conditions: intraarticular injection on days 7, 14 and 21 after surgery; compared to vehicle
# Protocol: as §1, §2
# [3] = test system: rat medial meniscal tear (MMT) model of osteoarthritis (OA); test: Joint histology in rat MMT osteoarthritis model; assay type: in vivo; conditions: day 28 after surgery
# Protocol: as §1
# As outlined in FIG. 13A, a histological analysis of test subjects was performed 28 days following the surgery. […] Additionally, synovitis score wad medial tibial osteophyte measurement was performed based on analysis of histological data.
# [4] = test system: human corneal epithelial (HCE-T) cells; test: HCE-T cell proliferation, xCELLigence RTCA cell index; assay type: cell-based; conditions: 72-hour time course; EGF 30.4 pg/ml to 31.2 ng/ml; MLC lysates 0.025-0.75% (v/v) (high speed centrifugation) or 0.22 μm filtered
# Protocol: Effect of MLC lysate on proliferation of human corneal epithelial (HCE-T) cells was measured. Briefly, HCE-T cells were plated on to E-Plate 96 (Agilent Technologies, Santa Clara, CA) at 2,500 cells per well in minimal KGM-Gold medium (Lonza, Walkersville, MD). Minimal KGM-Gold medium contains all KGM-Gold BulletKit components except for EGF (positive control), MLC lysates, and/or bovine pituitary extract. For negative control vehicle only, phosphate buffer solution (PBS) was used. After 24 hours, cells were treated with indicated concentrations of MLC lysates, EGF (SinoBiological Inc., Beijing, China) or PBS. The E-plate was then returned to the xCELLigence RTCA instrument for data collection for an additional 48 hours. Area under the curve (AUC) of normalized Cell Index was calculated using RTCA Software Pro and then normalized to vehicle. FIG. 10A illustrates results of a 72-hour time course study of effects of EGF on proliferation of HCE-T cells at a concentration ranging from 30.4 pg/ml to 31.2 ng/ml. FIG. 10B is an alternate representation of FIG. 10A showing normalized area under curved of normalized cell index for each concentration. […] FIG. 11A illustrates results of a 72-hour time course study of effects of MLC Lysates processed with high speed centrifugation on the proliferation of HCE-T cells at a dose ranging from 0.025% (v/v) to 0.75% (v/v). […]
substance,measurement,setting,value
recombinant human FGF-18: recombinant human FGF-18 used as positive control in the rat MMT model,pain profile in dynamic weight bearing testing,[1],progressive increasing signal over time
same,electronic von Frey filament thresholds,[2],significant decrease in thresholds
same,medial tibial osteophyte measurement compared to vehicle,[3],resulted in a significant increase
same,substantial cartilage degeneration width compared to vehicle,[3],significant reduction compared to vehicle treatment
same,synovitis score compared to vehicle,[3],significant increase in synovitis score
"EGF: EGF (SinoBiological Inc.) used as positive control for HCE-T proliferation (NSDSECPLSHDGYCLHDGVCMYIEALDKYACNCVVGYIGERCQYRDLKWWELR; Epidermal growth factor; UniProt P01133 971-1023, looked up)","proliferation of HCE-T cells (AUC of normalized Cell Index, normalized to vehicle)",[4],promotes corneal epithelial cell proliferation in a dose-dependent manner
